Assay results from patent US6710048B2, “Pyrazine derivatives as modulators of tyrosine kinases” (Ortho-McNeil Pharmaceutical, Inc., priority 2000, dated 2004).
pIC50: −log10 of the molar value.

Assays:
HCT-116 colon carcinoma = test: Cell proliferation assay (14C-thymidine incorporation), HCT-116; assay type: cell-based; details: Homo sapiens, read-out: Inhibition of cell proliferation IC50
Description: (§1) The ability of a test compound to inhibit the proliferation of cell growth was determined by measuring incorporation of ^14C-labelled thymidine into newly synthesized DNA within the cells. This method was used on cell lines derived from carcinomas originating from several tissues such as HeLa cervical adenocarcinoma (American Type Culture Collection (ATCC), Virginia, Cat. #CCL-2), A375 malignant melanoma (ATCC CRL-1619), SK-OV-3 ovarian adenocarcinoma (ATCC HTB-77) HCT-116 colon carcinoma (CCL-247) and PC-3 prostate adenocarcinoma (ATCC CRL-1435). The method was also used on primary cells such as HUVEC endothelial cells (ATCC CRL-1730). In this way the effect of a compound on cell growth of cells with many different phenotypes can be determined. Cells were trypsinized and counted and 3000-8000 cells were added to each well of a 96-well CytoStar tissue culture treated scintillating microplate (Amersham #RPNQ0160) in complete medium in a volume of 100 μl. Cells were incubated for 24 hours in complete medium at 37° C. in an atmosphere containing 5% CO2.
(§2) Next, 1 μl of test compound in 100% DMSO was added to the wells of the plate. DMSO only was added to control wells. Cells were incubated for 24 more hours in complete medium at 37° C. in an atmosphere containing 5% CO2. Methyl ^14C-thymidine 56 mCi/mmol (NEN #NEC568 or Amersham #CFA532) was diluted in complete medium and 0.2 μCi/well was added to each well of the CytoStar plate in a volume of 20 μl. The plate was incubated for 24 hours at 37° C. plus 5% CO2 in drug plus ^14C-thymidine. The contents of the plate were discarded into a ^14C radioactive waste container by inverting the plate and the plate was washed twice with 200 μl PBS. 200 μl of PBS is then added to each well. The top of the plate was sealed with a transparent plate sealer and a white plate backing sealer (Packard #6005199) was applied to the bottom of the plate. The degree of Methyl ^14C-thymidine incorporation was quantified on a Packard Top Count.

[1] = test system: A375 human melanoma cells; test: In vivo inhibition of tumor growth (A375 in athymic mice); parameters: species or system mouse; details: A375 cells s.c. in male athymic mice, intraperitoneally once a day for 30 days, 50 mg/Kg and 5 mg/Kg (FIG. 1)
Text: The in vivo effect of a compound on the growth of human tumor cells can be evaluated by implanting human tumor cells into the hindflank of athymic mice and administering test compound to the mice. Such assays are useful in identifying and confirming compounds that are useful for inhibiting angiogenesis or to identify compounds that can inhibit VEGF activity and therefor are useful for treating a variety of cancers or other diseases associated with abnormal or aberrant angiogenesis, such as those diseases discussed supra. Human tumor cells originating from a variety of different cancer types, such as A375 human melanoma cells, were implanted subcutaneously into the hindflank of male athymic mice (Charles River) and allowed to establish a sizeable tumor for 6-10 days as determined by caliper measurements. Test compound was then administered by injecting the compound formulated in an appropriate vehicle, here saline was used as the vehicle, intraperitoneally into the mice once a day for 30 days. The test compound can also be administered by other routes such as orally, sub cutaneously or by intravenous infusion. The size of the tumor in this study was measured every four days and the degree of inhibition was determined by comparing drug-treated animals to animals that were injected with vehicle only. […]

[2] = test system: PC-3 prostate adenocarcinoma; test: Cell proliferation assay (14C-thymidine incorporation), PC-3; assay type: cell-based; details: Homo sapiens, read-out: Inhibition of cell proliferation IC50
Description: as §1, §2

rat aortic ring = test: Rat aortic ring assay (vascular sprouting); assay type: cell-based; details: 192 h; rat aortic ring in fibrin gel, analyzed on day 8; read-out: Inhibition of Vascular Sprouting (IC50μM)
Description: The rat aortic ring assay is a rapid in vitro assay that measures new capillary growth in an environment that closely approximates the in vivo conditions of the extracellular matrix. The assay was performed as described (Nicosia, R F and Ottinetti, A. Growth of new microvessels in serum-free matrix culture of rat aorta. Lab Invest., 63: 115-122, 1990). Thoracic aortas were removed from 1 to 2-month old male Sprague-Dawley rats and transferred to a culture dish containing serum-free MCDB 131 medium (Clonetics). Extraneous tissue was removed and the aorta was sectioned into rings approximately 1 mm long and rinsed 8-10 times in serum-free medium. A solution of sterile 1.5% agarose (Type VI-A, Sigma, St. Louis, Mo.) was added to the wells of a 6-well plate. The wells were filled with clotting fibrinogen solution and an aortic ring was transferred into the well positioned with the lumen oriented horizontally in the center of the fibrin gel solution. The fibrinogen solution was prepared in MCDB 131 medium with bovine fibrinogen at 3 mg/ml. Clotting was initiated by adding 20 μl of a 50 NIH units/ml bovine thrombin solution and the fibrin gel generally formed within 30 seconds. The fibrinolytic inhibitor amino-n-caproic acid was added to the culture medium at 300 µg/ml (microgram per milliliter) for the first four days of the assay and at 50 μg/ml from day 5 to day 8. Once the fibrin gel solution solidified, 5 ml of serum-free MCDB 131 media containing 100 μg/ml penicillin, 100 μg/ml streptomycin and 0.25 μg/ml amphotericin B was added to each well. Explants were incubated at 37° C. with 5% CO2 for 8 days. Medium was replaced every 2-3 days and the assay was analyzed on day 8. Inhibition of vascular sprouting was measured by adding test compounds diluted in DMSO.

With CN(C)CCNc1cncc(-c2cncc(Nc3cccc(Cl)c3)n2)c1 [Cmd 33, N′-[5-[6-[(3-chlorophenyl)amino]pyrazinyl]-3-pyridinyl]-N^2,N^2-dimethyl-1,2-ethanediamine] the pIC50 (HCT-116 colon carcinoma) was less than 4.00, the “tumor growth delay (tumor size)” value [1] was “delay of tumor size progression” and the “tumor growth delay (tumor size)” value ([1]; listed as compound 33) was “tumor growth delay”. It also gave a pIC50 [2] of 4.64 and a pIC50 (rat aortic ring) of less than 6.00.
